The test system of this assay is A549 human lung carcinoma cells. Description: Chemotherapeutic drugs as possible positive control, 24 hour incubation with XTT endpoint. Conditions: data not shown. Format: cell-based. The protocol:
The broadly active chemotherapeutics drugs SN-38 (20 μM top dose), the active metabolite of irinotecan, carboplatin (7.5 mM top dose), and paclitaxel (20 μM top dose) are tested to determine if sufficient cell killing can be achieved under the anticipated assay conditions, i.e., 24 hour incubation with XTT endpoint.

On to `CCc1c2c(nc3ccc(O)cc13)-c1cc3c(c(=O)n1C2)COC(=O)[C@]3(O)CC` [SN-38], for which, where the note is “20 μM top dose”, the cell killing result is recorded as “None of the drugs produce sufficient cell killing”.

Consider `N.N.O=C([O-])C1(C(=O)[O-])CCC1.[Pt+2]` [carboplatin], for which, where the note is “7.5 mM top dose”, the cell killing entry was “None of the drugs produce sufficient cell killing”.

Turning to `CC(=O)O[C@H]1C(=O)[C@@]2(C)[C@H]([C@H](OC(=O)c3ccccc3)[C@]3(O)C[C@H](OC(=O)[C@H](O)[C@@H](NC(=O)c4ccccc4)c4ccccc4)C(C)=C1C3(C)C)[C@]1(OC(C)=O)CO[C@@H]1C[C@@H]2O` [paclitaxel], under “20 μM top dose”, the cell killing result is recorded as “None of the drugs produce sufficient cell killing”.

The values above are taken from patent US11726079B2, “Lighting systems and methods of using lighting systems for in vitro potency assay for Photofrin” (Concordia Laboratories, Inc., priority 2012, dated 2023).
